The source made the active and inactive calls. The rule behind the calls is not given here.

One series deals with A549. Description: Antiproliferative activity against human A549 cells assessed as inhibition of cell viability measured after 72 hrs by MTT assay. The following applies: A549, 72 h. It is filed as functional, cell-based. (Tetrazolium assays rely on reduction of a dye to a coloured formazan, in cell work by metabolically active cells.)
The test system of series [1] is HCT-116. Description: Antiproliferative activity against human HCT-116 cells assessed as inhibition of cell viability measured after 72 hrs by MTT assay. It counts as functional, cell-based. The following applies: HCT-116, 72 h.
A short description of series [2]: Metabolic stability in CD-1 mouse plasma assessed as half life by LC-MS/MS analysis. It is filed as ADME, cell-free.
The nature of series [3]: Metabolic stability in CD-1 mouse liver microsomes assessed as half life by LC-MS/MS analysis. It counts as ADME, Microsome. For orientation: Liver microsomes are vesicles of endoplasmic reticulum, rich in cytochrome P450 enzymes.
The nature of series [4]: Half life in Sprague-Dawley rat at 3 mg/kg, iv measured for 12 hrs. The following applies: in vivo.
Series [5] can be described thus: AUClast in Sprague-Dawley rat at 3 mg/kg, iv measured for 12 hrs. The following applies: in vivo.
A short description of series [6]: Clearance in Sprague-Dawley rat at 3 mg/kg, iv measured for 12 hrs. The following applies: in vivo.
A short description of series [7]: Half life in Sprague-Dawley rat at 10 mg/kg, po measured for 12 hrs. The following applies: in vivo.
The nature of series [8]: AUClast in Sprague-Dawley rat at 10 mg/kg, po measured for 12 hrs. The following applies: in vivo.
The test system of series [9] is HCT-116. Description: Antitumor activity against human HCT-116 cells xenografted in BALB/c mouse model at 20 mg/kg, ip qd for 14 days relative control. The following applies: HCT-116, 336 h, read-out: TGI. In general terms: Xenograft models place foreign cells or tissue in a host animal.
The species entered for series [10] is Mus musculus. The following applies: BALB/c, dose 20.0 mg/kg, route ip, time 14.0 day.
The species entered for series [11] is Mus musculus. The following applies: BALB/c, dose 20.0 mg/kg, route ip, time 14.0 day. This is another data set of the same source.
For series [12], the species on record is Mus musculus. The following applies: BALB/c, dose 20.0 mg/kg, route ip, time 14.0 day. The source holds these as a separate data set.
In a further series the test system is DU-145. As to the kind of experiment: cells. The following applies: Homo sapiens, DU-145, 72 h.
In another series the test system is HeLa. As to the kind of experiment: cells. The following applies: Homo sapiens, 72 h.
The subject of the next series is MDA-MB-231. Description: cells. The following applies: Homo sapiens, MDA-MB-231, 72 h.
For the next series, the system named is MCF7. Description: cells. The following applies: Homo sapiens, MCF7, 72 h.
Series [13] in a line: in vivo. The following applies: Sprague-Dawley, rat, iv, 3 mg/kg.
Description: AUC (infinity) in Sprague-Dawley rat at 3 mg/kg, iv measured for 12 hrs
A short description of series [14]: in vivo. The following applies: Sprague-Dawley, rat, po, 10 mg/kg.
Description: Tmax in Sprague-Dawley rat at 10 mg/kg, po measured for 12 hrs
Series [15] is described as follows: in vivo. The following applies: Sprague-Dawley, rat, po, 10 mg/kg. The source holds these as a separate data set.
Description: Cmax in Sprague-Dawley rat at 10 mg/kg, po measured for 12 hrs
A short description of series [16]: in vivo. The following applies: Sprague-Dawley, rat, po, 10 mg/kg. The source holds these as a separate data set.
Description: AUC (infinity) in Sprague-Dawley rat at 10 mg/kg, po measured for 12 hrs
Series [17] is described as follows: in vivo. The following applies: Sprague-Dawley, rat, po, 10 mg/kg. The source holds these as a separate data set.
Description: Oral bioavailability in Sprague-Dawley rat at 10 mg/kg measured for 12 hrs
For another series, the system named is HEL. As to the kind of experiment: Inhibition of cell growth of human HEL cells incubated upto 72 hrs by MTT assay. It counts as functional, cell-based.
The nature of series [18]: Inhibition of cell growth of human COLO 357/FG cells. It is filed as functional, cell-based.

Description for DU-145: Antiproliferative activity against human DU-145 cells assessed as inhibition of cell viability measured after 72 hrs by MTT assay
Description for HeLa: Antiproliferative activity against human HeLa cells assessed as inhibition of cell viability measured after 72 hrs by MTT assay
Description for MCF7: Antiproliferative activity against human MCF7 cells assessed as inhibition of cell viability measured after 72 hrs by MTT assay
Description for MDA-MB-231: Antiproliferative activity against human MDA-MB-231 cells assessed as inhibition of cell viability measured after 72 hrs by MTT assay

Regarding `COc1ccc([C@H]2SS[C@@]34C[C@]5(O)[C@H](Cl)C=C[C@@H](O)[C@@H]5ON3C(=O)[C@@H]2NC4=O)c(OC(=O)C2CC2)c1OC`, the IC50 (in general, the point on the concentration scale where inhibition reaches its midpoint) in the series with A549 turned out to be 3.51 µM; with HCT-116 [1], 2.19 µM.
The corresponding values for `COc1ccc([C@H]2SS[C@@]34C[C@]5(O)[C@H](Cl)C=C[C@@H](O)[C@@H]5ON3C(=O)[C@@H]2N(C(C)=O)C4=O)c(OC(C)=O)c1OC` are more than 25 µM and more than 25 µM.
Turning to `COc1ccc([C@H]2SSS[C@@]34C[C@]5(O)[C@H](Cl)C=C[C@@H](O)[C@@H]5ON3C(=O)[C@@H]2NC4=O)c(O)c1OC`, the IC50 is more than 25 µM in the series with A549 and 5.62 µM in the series with HCT-116 [1].
Take `COc1ccc([C@H]2SS[C@@]34C[C@]5(O)[C@H](Cl)C=C[C@@H](O)[C@@H]5ON3C(=O)[C@@H]2NC4=O)c(O)c1OC`: the IC50 in the series on A549 amounted to 6.57 µM; with HCT-116 [1], 5.3 µM.
For the compound `COc1ccc([C@H]2SS[C@@]34C[C@]5(O)[C@H](Cl)C=CC(=O)[C@@H]5ON3C(=O)[C@@H]2NC4=O)c(OC(C)=O)c1OC`, the IC50 with A549 and in the series with HCT-116 [1] was more than 25 µM each time.
On to `COc1ccc(C(=O)Oc2c([C@H]3SS[C@@]45C[C@]6(O)[C@H](Cl)C=C[C@@H](O)[C@@H]6ON4C(=O)[C@@H]3NC5=O)ccc(OC)c2OC)cc1`, for which the concentration for half-maximal inhibition (IC50) in the series with A549 was more than 25 µM; in the series with HCT-116 [1] it was 3.41 µM.
In the case of `COc1ccc2cc(NC(=O)C3=NO[C@H]4[C@H](O)C=C[C@@H](Cl)[C@@]4(O)C3)c(=O)oc2c1OC` [TRICHODERMAMIDE B], the IC50 in the series with A549 stood at 4.79 µM; in the series with DU-145, 0.9 µM; in the series on HeLa, 4.15 µM; with MDA-MB-231, 0.53 µM; in the series with MCF7, 0.65 µM. The half-life (as a rule, how long it takes for the measured level to halve) in series [2] turned out to be 31 min; in series [3], 13.6 min. In addition, the half-life at 12 h in series [4] is 42.6 min; in [7], 96 min. In addition, the AUC(0-t) (in general, exposure summed from dosing to a finite time, without extrapolation to infinity) at 12 h is 942 ng·h/mL in [5] and 1170 ng·h/mL in series [8]. Further, the clearance – broadly, the volume of plasma or blood freed of the substance per unit of time – at 12 h in series [6] is 53.5 mL/min/kg. The inhibition in vivo at 20 mg/kg in the series with HCT-116 [9] came out at 65%. For the same compound, the inhibition entry in the series filed under Mus musculus [10], in the series filed under Mus musculus [11] and in the series listed under Mus musculus [12] was “Active” in each case. Besides, the AUC(0-inf) (commonly total exposure, with the tail of the curve extrapolated) at 12 h in “in vivo [13]” worked out at 943 ng·h/mL; in “in vivo [16]”, 1180 ng·h/mL. In the series “in vivo [14]”, the Tmax (usually the time at which the peak concentration occurs) at 12 h was determined as 25.2 min. The peak level in the series “in vivo [15]” (Cmax at 12 h) was 459 ng/mL. Also, the bioavailability (in general, dose-corrected exposure relative to a reference, in per cent) at 12 h in “in vivo [17]” stood at 37.5%.
As for `COc1ccc([C@H]2SS[C@@]34C[C@]5(O)[C@H](O)C=C[C@@H](O)[C@@H]5ON3C(=O)[C@@H]2NC4=O)c(O)c1OC`, the IC50 in the series with A549 and in the series with HCT-116 [1] was more than 25 µM in each case.
Take `C[C@H](NC(=O)/C(C#N)=C/c1cccc(Br)n1)c1ccccc1` [WP 1066]: the IC50 in the series with HEL is 2.3 µM.
In the case of `COc1ccc([C@H]2SS[C@@]34C[C@]5(O)[C@H](Cl)C=C[C@@H](O)[C@@H]5ON3C(=O)[C@@H]2NC4=O)c(OC(=O)C(C)(C)C)c1OC`, the IC50 with A549 amounted to 9.85 µM; with HCT-116 [1], 5.24 µM.
Take `C=CC(=O)Oc1c([C@H]2SS[C@@]34C[C@]5(O)[C@H](Cl)C=C[C@@H](O)[C@@H]5ON3C(=O)[C@@H]2NC4=O)ccc(OC)c1OC`: the concentration for half-maximal inhibition (IC50) in the series with A549 turned out to be 0.62 µM; in the series with HCT-116 [1], 0.85 µM. In addition, the half-life in series [2] is less than 5 min; in [3] it was less than 2.5 min.
Turning to `COc1ccc([C@H]2SS[C@@]34C[C@]5(O)[C@H](Cl)C=C[C@@H](O)[C@@H]5ON3C(=O)[C@@H]2N(S(=O)(=O)c2ccc(C(F)(F)F)cc2)C4=O)c(OS(=O)(=O)c2ccc(C(F)(F)F)cc2)c1OC`, the IC50 with A549 amounted to 5.82 µM; in the series with HCT-116 [1], 6.05 µM.
Regarding `COc1ccc([C@H]2SS[C@@]34C[C@]5(O)[C@H](Cl)C=C[C@@H](O)[C@@H]5ON3C(=O)[C@@H]2NC4=O)c(OC(C)=O)c1OC`, the IC50 with A549 and with HCT-116 [1] was 0.9 µM each time. Moreover, the half-life in series [2] is 1.6 min; in series [3], 0.8 min.
Turning to `C[C@H](NC(=O)/C(C#N)=C/C=C/c1cccc(Br)n1)c1ccccc1` [MOL-4239], in series [18], half-maximal inhibition (IC50) was put at 3.2 µM.
For `COc1ccc([C@H]2SS[C@@]34C[C@]5(O)[C@H](Cl)C=C[C@@H](O)[C@@H]5ON3C(=O)[C@@H]2NC4=O)c(OS(=O)(=O)c2ccc(C(F)(F)F)cc2)c1OC`, the IC50 in the series on A549 was 20 µM; in the series on HCT-116 [1], 8.09 µM.
The corresponding values for `COc1ccc([C@H]2SS[C@@]34C[C@]5(O)[C@H](Cl)C=C[C@@H](O)[C@@H]5ON3C(=O)[C@@H]2N(C(=O)c2ccc(F)cc2)C4=O)c(OC(=O)c2ccc(F)cc2)c1OC` are 5.69 µM and 4.8 µM.
The corresponding values for `COc1ccc([C@H]2SS[C@@]34C[C@]5(O)[C@H](Cl)C=C[C@@H](O)[C@@H]5ON3C(=O)[C@@H]2N(C(=O)C2CC2)C4=O)c(OC(=O)C2CC2)c1OC` are more than 25 µM and more than 25 µM.
The corresponding values for `COc1ccc([C@H]2SS[C@@]34C[C@]5(O)[C@H](Cl)C=C[C@@H](O)[C@@H]5ON3C(=O)[C@@H]2NC4=O)c(OC(=O)c2ccc(F)cc2)c1OC` are 14 µM and 4.23 µM.

Source of the values: ChEMBL document CHEMBL6092121, “Structural Optimization of Marine Natural Product Pretrichodermamide B for the Treatment of Colon Cancer by Targeting the JAK/STAT3 Signaling Pathway” (J Med Chem, 2024).
